Reference: patent US20250032465A1, “METHODS OF TREATING CNS DISORDERS” (HANGZHOU HIGHLIGHTLL PHARMACEUTICAL CO., LTD, priority 2021, published 2025)
Where two headings read alike, the source gives them in different places.

Key:
[1] = target: T1, TYK2 (Homo sapiens, UniProt P29597); assay: TYK2 biochemical test (33P-ATP filter binding, Reaction Biology); conditions: read-out: Inhibition of TYK2 (IC50)
T1 construct: purchased Reaction Biology Corp, Malvern, PA (contract testing)
Method: (§1) The tests were conducted by Reaction Biology Corp, Malvern, PA (Anastassiadis et al. Nat Biotechnol. 2011; 29(11):1039-45). The step is briefly described as follows, using the basic reaction buffer: 20 mM Hepes (pH 7.5), 10 mM MgCl2, 1 mM EGTA, 0.02% Brij35, 0.02 mg/ml BSA, 0.1 mM Na3VO4, 2 mM DTT and 1% DMSO. The required cofactor was added to each kinase reaction respectively. Each reaction was performed according to the following reaction steps: 1) Preparing the designated substrate in the newly prepared basic reaction buffer; 2) Transferring the required cofactor to the above matrix solution; 3) Transferring the designated kinase to the substrate solution and mixing well slightly; 4) Transferring a compound of Formula (I) in DMSO to the kinase reaction mixture with Acoustic technique (Echo550; nanoliter range), culturing for 20 minutes at room temperature; 5) Introducing ^33P-ATP (specific activity: 10 μCi/μl) to the reaction mixture to trigger a reaction; 6) Culturing at room temperature and conducting a kinase reaction for 2 hours; 7) Plotting the reaction on P81 ion exchange paper; and 8) Testing the kinase activity with a filter binding assay. The results shown in Table 1 indicate that compounds of Formulae (I)-(III) are potent and selective TYK2/JAK1 inhibitors.

[2] = target: T2, JAK1 (Homo sapiens, UniProt P23458); assay: JAK1 biochemical test (33P-ATP filter binding, Reaction Biology); conditions: read-out: Inhibition of JAK1 (IC50)
T2 construct: purchased Reaction Biology Corp, Malvern, PA (contract testing)
Method: as §1

[3] = target: T3, JAK2 (Homo sapiens, UniProt O60674); assay: JAK2 biochemical test (33P-ATP filter binding, Reaction Biology); conditions: read-out: Inhibition of JAK2 (IC50)
T3 construct: purchased Reaction Biology Corp, Malvern, PA (contract testing)
Method: as §1

[4] = Brain penetration in mice; type: in vivo, C57BL/6 mice; conditions: male, mouse, 30 mg/kg oral gavage, 4-hour post-dosing
Method: This testing was performed to test the ability of compounds to penetrate the blood-brain-barrier in mice. The testing was performed according to the following procedure: 1) for each compound, take 3 male C57BL/6 mice with body weight of 17-18 g, formulate compound using 0.5% HPMC/water suspension at concentration of 3 mg/ml; 2) After fasting overnight, administer compound at 30 mg/kg by oral gavage; 3) Take plasma samples at 1, 2, 4 hours post-dosing; 4) At 4-hour post-dosing, also take brain tissues and cerebrospinal fluid (CSF) fluid; 5) Analyze compound concentration in plasma, brain tissue, and CSF fluid using LC-MS/MS method.

[5] = target: T2, JAK1; assay: JAK1 cellular ELISA assay using PBMC cells (IL-6 stimulated STAT3 phosphorylation); type: cell-based; conditions: IL-6 100 ng/ml, 25 min
Method: This testing was performed to test cellular JAK1 activity using the IL-6 stimulated STAT3 phosphorylation assay in PBMC cells. The testing was performed according to the following procedure: 1) Plate PBMC cells to 96-well plate at density of ˜300,000 cell/well; 2) Add different concentrations of test article to wells, maintain in incubator at 37° C. and 5% CO2 for 1 hour; 3) Add IL-6 (final concentration: 100 ng/ml) to stimulate for 25 min in the above incubator; 4) After stimulation, transfer the suspension to 1.5 mL tube, centrifuge at 200 g for 5 min, collect cells, add 100 μL 1× lysate, lyse on ice for 1 hour; 5) Centrifuge at 4° C. and 12000 rpm for 10 min, take the supernatant and analyze according to instructions of the ELISA kit. In this assay, compounds of Formulae (II) and (III) had IC50<300 nM.

[6] = target: T1, TYK2; assay: TYK2 cellular ELISA assay using NK92 cells (IL-12 and IL-18 stimulated IFNγ excretion); type: cell-based; conditions: IL-12 2 ng/ml, IL-18 5 ng/ml, 24 hours
Method: This testing was performed to test cellular TYK2 activity using IL-12 and IL-18 stimulated IFNγ excretion assay in NK92 cells. The testing was performed according to the following procedure: 1) Replace NK92 cell media containing IL-2 with media not containing IL-2, maintain overnight; 2) Plate NK92 cells to 96-well plate at density of ˜150,000 cell/well; 3) Add different concentrations of test article to wells, maintain in incubator at 37° C. and 5% CO2 for 1 hour; 4) Add IL-12 (final concentration: 2 ng/ml) and IL-18 (final concentration: 5 ng/ml) to stimulate for 24 hours in the above incubator; 5) After 24 hours, centrifuge at 2000 rpm for 5 min, take the supernatant and analyze according to instructions of the ELISA kit. In this assay, compounds of Formulae (II) and (III) had IC50<100 nM.

[7] = Brain penetration in rats; type: in vivo; conditions: male, rat, 10 mg/kg oral gavage, 8 hour post-dosing
Method: This testing was performed to test the ability of compounds to penetrate the blood-brain-barrier in rats. The testing was performed according to the following procedure: 1) For each compound, take 3 male rats with body weight of 217-228 g, formulate compound using 0.5% HPMC/water suspension at concentration of 1 mg/ml; 2) After fasting overnight, administer compound at 10 mg/kg by oral gavage; 3) Take plasma samples at 1, 2, 4, 8 hours post-dosing; 4) At 8 hour post-dosing, also take brain tissues and cerebrospinal fluid (CSF); 5) Analyze compound concentration in plasma, brain tissue, and CSF using LC-MS/MS method.

[8] = target: T4, JAK3 (Homo sapiens, UniProt P52333); assay: JAK3 biochemical test (33P-ATP filter binding, Reaction Biology); conditions: read-out: Inhibition of JAK3 (IC50)
T4 construct: purchased Reaction Biology Corp, Malvern, PA (contract testing)
T4 sequence (P52333 1-1124): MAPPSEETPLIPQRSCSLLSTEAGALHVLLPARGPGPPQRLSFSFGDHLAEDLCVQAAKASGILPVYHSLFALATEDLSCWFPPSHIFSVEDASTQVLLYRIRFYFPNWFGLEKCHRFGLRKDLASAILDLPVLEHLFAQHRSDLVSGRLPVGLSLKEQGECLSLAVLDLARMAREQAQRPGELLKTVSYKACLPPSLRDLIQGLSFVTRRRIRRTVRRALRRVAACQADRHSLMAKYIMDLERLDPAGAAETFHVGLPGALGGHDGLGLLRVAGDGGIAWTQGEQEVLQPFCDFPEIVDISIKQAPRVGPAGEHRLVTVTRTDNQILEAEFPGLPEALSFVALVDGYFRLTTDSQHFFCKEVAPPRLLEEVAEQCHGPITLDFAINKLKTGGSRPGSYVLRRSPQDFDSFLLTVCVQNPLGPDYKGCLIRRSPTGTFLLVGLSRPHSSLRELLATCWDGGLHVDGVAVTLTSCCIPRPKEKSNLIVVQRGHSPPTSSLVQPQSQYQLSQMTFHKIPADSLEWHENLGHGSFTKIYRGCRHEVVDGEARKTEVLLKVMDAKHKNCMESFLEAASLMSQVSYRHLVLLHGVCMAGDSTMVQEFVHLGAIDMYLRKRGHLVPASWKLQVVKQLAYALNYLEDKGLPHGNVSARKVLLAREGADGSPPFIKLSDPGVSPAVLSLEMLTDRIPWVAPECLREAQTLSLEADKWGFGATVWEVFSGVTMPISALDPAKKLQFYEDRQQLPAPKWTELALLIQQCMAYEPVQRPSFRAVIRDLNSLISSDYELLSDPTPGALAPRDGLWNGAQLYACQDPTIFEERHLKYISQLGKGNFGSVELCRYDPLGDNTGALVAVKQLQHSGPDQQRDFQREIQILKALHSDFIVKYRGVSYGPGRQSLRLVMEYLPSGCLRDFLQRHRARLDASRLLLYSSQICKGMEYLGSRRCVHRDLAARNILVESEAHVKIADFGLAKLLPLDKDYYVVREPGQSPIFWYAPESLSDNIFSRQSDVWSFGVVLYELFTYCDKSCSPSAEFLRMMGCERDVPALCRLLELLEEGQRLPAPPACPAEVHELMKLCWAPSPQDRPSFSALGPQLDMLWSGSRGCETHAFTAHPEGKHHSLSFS
Method: as §1

T1 sequence (P29597 whole entry): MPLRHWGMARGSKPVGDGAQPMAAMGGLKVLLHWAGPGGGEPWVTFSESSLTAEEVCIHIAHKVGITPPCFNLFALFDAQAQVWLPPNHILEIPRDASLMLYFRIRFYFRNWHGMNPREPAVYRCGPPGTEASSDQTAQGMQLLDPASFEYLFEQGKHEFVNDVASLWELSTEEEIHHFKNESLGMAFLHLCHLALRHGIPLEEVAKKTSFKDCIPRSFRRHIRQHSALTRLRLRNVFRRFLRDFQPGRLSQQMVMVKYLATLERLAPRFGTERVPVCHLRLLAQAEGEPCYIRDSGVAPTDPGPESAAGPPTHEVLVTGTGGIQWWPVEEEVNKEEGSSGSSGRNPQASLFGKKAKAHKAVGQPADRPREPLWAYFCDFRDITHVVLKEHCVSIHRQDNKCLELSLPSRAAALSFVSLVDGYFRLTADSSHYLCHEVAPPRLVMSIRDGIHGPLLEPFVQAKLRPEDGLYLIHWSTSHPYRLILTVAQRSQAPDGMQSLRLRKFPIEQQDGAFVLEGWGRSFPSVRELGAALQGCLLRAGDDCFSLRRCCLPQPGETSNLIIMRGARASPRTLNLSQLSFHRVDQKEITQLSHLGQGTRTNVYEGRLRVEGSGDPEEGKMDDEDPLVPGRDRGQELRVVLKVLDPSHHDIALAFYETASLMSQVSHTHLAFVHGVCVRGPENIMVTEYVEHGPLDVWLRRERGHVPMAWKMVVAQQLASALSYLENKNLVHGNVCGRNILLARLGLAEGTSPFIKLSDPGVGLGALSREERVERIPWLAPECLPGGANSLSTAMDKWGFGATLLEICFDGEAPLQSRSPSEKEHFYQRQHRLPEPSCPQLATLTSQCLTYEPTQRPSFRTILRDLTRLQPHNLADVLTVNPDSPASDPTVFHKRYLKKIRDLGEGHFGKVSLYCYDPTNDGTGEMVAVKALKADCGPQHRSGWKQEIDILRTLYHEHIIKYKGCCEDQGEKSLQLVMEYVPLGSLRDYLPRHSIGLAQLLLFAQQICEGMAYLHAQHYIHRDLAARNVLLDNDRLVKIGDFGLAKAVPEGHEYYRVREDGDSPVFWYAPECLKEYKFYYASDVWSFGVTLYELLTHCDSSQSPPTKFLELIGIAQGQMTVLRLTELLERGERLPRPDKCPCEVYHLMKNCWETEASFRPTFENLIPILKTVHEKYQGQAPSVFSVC
T2 sequence (P23458 whole entry): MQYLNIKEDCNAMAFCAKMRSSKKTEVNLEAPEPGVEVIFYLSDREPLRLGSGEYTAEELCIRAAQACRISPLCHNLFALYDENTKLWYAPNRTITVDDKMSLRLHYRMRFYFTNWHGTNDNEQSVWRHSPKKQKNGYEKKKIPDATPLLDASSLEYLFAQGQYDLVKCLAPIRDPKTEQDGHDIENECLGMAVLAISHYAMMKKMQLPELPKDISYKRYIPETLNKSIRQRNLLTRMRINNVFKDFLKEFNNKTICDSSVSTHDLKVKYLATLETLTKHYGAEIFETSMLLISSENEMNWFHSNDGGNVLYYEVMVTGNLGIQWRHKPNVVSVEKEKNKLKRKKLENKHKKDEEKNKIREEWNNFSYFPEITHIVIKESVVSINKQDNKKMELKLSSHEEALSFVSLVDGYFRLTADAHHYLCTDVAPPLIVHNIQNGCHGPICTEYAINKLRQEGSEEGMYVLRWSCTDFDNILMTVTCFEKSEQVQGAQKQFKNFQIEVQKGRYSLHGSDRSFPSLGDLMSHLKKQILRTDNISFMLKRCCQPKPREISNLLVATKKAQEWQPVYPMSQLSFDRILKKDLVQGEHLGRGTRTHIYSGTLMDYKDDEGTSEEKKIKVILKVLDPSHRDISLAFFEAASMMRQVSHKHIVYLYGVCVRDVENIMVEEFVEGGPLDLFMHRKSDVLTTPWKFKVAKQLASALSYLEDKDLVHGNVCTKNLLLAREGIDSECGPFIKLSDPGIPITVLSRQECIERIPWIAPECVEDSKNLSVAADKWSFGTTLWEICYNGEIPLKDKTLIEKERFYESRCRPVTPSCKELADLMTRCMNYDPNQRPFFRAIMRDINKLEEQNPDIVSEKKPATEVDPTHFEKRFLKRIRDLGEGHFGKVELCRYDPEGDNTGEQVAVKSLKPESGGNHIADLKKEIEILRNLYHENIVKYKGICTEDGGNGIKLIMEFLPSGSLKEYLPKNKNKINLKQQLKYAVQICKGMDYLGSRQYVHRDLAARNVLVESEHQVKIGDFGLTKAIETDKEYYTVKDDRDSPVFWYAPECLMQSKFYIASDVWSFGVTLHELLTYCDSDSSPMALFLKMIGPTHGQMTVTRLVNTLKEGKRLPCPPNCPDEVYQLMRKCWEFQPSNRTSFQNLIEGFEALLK
T3 sequence (O60674 whole entry): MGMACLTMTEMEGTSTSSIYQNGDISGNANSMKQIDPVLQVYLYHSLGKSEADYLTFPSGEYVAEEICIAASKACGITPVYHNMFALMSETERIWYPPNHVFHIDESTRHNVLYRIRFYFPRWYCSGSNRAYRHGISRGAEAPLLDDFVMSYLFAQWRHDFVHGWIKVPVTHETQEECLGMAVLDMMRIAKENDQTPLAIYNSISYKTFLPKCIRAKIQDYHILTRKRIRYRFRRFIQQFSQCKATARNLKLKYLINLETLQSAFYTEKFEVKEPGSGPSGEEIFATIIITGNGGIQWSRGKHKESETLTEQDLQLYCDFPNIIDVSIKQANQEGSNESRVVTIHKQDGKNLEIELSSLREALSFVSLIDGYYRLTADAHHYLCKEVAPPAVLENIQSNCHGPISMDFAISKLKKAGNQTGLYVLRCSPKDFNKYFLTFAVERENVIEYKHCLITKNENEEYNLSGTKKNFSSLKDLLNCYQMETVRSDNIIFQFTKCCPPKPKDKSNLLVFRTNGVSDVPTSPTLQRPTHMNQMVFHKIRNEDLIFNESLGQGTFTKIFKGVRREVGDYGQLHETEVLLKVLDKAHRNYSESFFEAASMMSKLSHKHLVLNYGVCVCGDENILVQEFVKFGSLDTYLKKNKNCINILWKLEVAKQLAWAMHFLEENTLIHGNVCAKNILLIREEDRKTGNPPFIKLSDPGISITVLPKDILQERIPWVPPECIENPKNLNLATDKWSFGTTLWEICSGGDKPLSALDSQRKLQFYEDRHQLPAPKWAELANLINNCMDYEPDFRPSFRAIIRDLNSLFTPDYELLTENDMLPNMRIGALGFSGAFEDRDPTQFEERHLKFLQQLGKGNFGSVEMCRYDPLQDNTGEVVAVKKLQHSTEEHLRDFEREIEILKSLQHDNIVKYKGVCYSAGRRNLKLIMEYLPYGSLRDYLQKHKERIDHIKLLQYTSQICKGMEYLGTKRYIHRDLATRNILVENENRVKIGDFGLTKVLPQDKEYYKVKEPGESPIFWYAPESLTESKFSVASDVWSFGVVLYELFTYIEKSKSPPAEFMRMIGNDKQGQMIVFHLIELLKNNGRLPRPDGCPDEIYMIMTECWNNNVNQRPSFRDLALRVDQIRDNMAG

In the case of `CCc1nc2cnc3ccoc3c2n1[C@H]1CC[C@H](CC#N)OC1` [Formula (I)], the IC50 [1] is reported as < 100 nM, the IC50 [2] is reported as < 10 nM and the IC50 [3] is reported as > 200 nM.
In the case of `Cc1nc2cnc3ccoc3c2n1[C@H]1CC[C@H](CC#N)CC1` [Formula (III)], the Kp at 4 h ([4]; C57BL/6, CSF/plasma, read-out: CSF (ng/ml)/ Plasma (ng/ml)) is reported as > 0.15, the Kp at 4 h ([4]; C57BL/6, brain/plasma, read-out: Brain (ng/ml)/ Plasma (ng/ml)) is reported as > 0.3 and the IC50 [5] is reported as < 300 nM. For the same compound, the IC50 [6] was < 100 nM, the Kp at 8 h ([7]; CSF/plasma, read-out: CSF (ng/ml)/ Plasma (ng/ml)) was > 0.15 and the Kp at 8 h ([7]; brain/plasma, read-out: Brain (ng/ml)/ Plasma (ng/ml)) was > 0.4. The IC50 [1] was < 10 nM, the IC50 [2] was < 10 nM and the IC50 [8] was > 100 nM. For the same compound, the IC50 [3] was > 20 nM.
